Legend:
S. pneumoniae D39V [1] = assay: Bliss interaction score (quartile over a dose matrix) (fitness difference); higher = more antagonism (negative = synergy)
In short: (§1)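 Fitness here means normalised growth, inferred for single drugs from the combination data. Growth was OD595 at entry into stationary phase, divided by the plate's robust no-drug mean and capped at 1. The Bliss score is observed minus expected fitness, with the expectation being the product, and its quartiles span technical, biological and donor/recipient replicates.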

S. aureus DSM 20231 = assay: as above
In short: as §1

B. subtilis 168 [2] = assay: as above
In short: as §1

S. aureus Newman [3] = assay: as above
In short: as §1

S. pneumoniae D39V [4] = assay: fitness (endpoint OD595 vs no drug) (fraction); higher = more growth
In short: (§2)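 At 37 °C, bacteria in TSB, LB Lennox or CY were grown in 384-well plates from a starting OD595 of 0.01. OD595 was measured every 30 min for 14 h, with the first reading used as background. Fitness is the optical density at the switch to stationary phase as a fraction of the robust mean of no-drug control wells, capped at 1.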

B. subtilis 168 [5] = assay: as above
In short: as §2

S. aureus Newman [6] = assay: as above
In short: as §2
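Throughout, for Bliss interaction score (quartile over a dose matrix): first quartile when negative (synergy) and third quartile when positive (antagonism).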
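Throughout, for fitness (endpoint OD595 vs no drug): OD595 on entry to stationary phase over no-drug wells; at most 1.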

COc1ccc(C[C@H](N)C(=O)N[C@H]2[C@@H](O)[C@H](n3cnc4c(N(C)C)ncnc43)O[C@@H]2CO)cc1 [Puromycin] + CN(C)c1cc(NC(=O)CNC(C)(C)C)c(O)c2c1C[C@H]1C[C@H]3[C@H](N(C)C)C(O)=C(C(N)=O)C(=O)[C@@]3(O)C(O)=C1C2=O [Tigecycline]
Conditions	Bliss interaction score
B. subtilis 168 [2]	-0.044
S. aureus DSM 20231	0.0709
S. aureus Newman [3]	0.0585
S. pneumoniae D39V [1]	0.062

fitness
Conditions	first compound 0.39 µg/mL	first compound 0.78 µg/mL	first compound 1 µg/mL	first compound 1.56 µg/mL	first compound 2 µg/mL	first compound 4 µg/mL
B. subtilis 168 [5], partner 0.039 µg/mL	0.945	0.976	–	0.953	–	–
B. subtilis 168 [5], partner 0.078 µg/mL	0.945	0.925	–	0.958	–	–
B. subtilis 168 [5], partner 0.156 µg/mL	0.895	0.964	–	0.924	–	–
S. aureus Newman [6], partner 0.039 µg/mL	≥ 1	0.999	–	0.985	–	–
S. aureus Newman [6], partner 0.078 µg/mL	≥ 1	0.995	–	0.995	–	–
S. aureus Newman [6], partner 0.156 µg/mL	≥ 1	0.991	–	≥ 1	–	–
S. pneumoniae D39V [4], partner 0.65 µg/mL	–	–	0.921	–	0.892	0.723
S. pneumoniae D39V [4], partner 1.3 µg/mL	–	–	0.927	–	0.931	0.71
S. pneumoniae D39V [4], partner 2.6 µg/mL	–	–	≥ 1	–	0.941	0.797

fitness, B. subtilis 168 [5], one replicate
Conditions	first compound 0.39 µg/mL	first compound 0.78 µg/mL	first compound 1.56 µg/mL
partner 0.125 µg/mL	≥ 1	0.997	≥ 1
partner 0.25 µg/mL	0.862	0.938	0.92
partner 0.5 µg/mL	0.908	0.893	0.903

COc1ccc(C[C@H](N)C(=O)N[C@H]2[C@@H](O)[C@H](n3cnc4c(N(C)C)ncnc43)O[C@@H]2CO)cc1 [Puromycin] + CN[C@@H]1[C@H](O[C@H]2[C@H](O[C@H]3[C@H](O)[C@@H](O)[C@H](N=C(N)N)[C@@H](O)[C@@H]3N=C(N)N)O[C@@H](C)[C@]2(O)C=O)O[C@@H](CO)[C@H](O)[C@H]1O [Streptomycin]
Conditions	Bliss interaction score
B. subtilis 168 [2]	-0.226
S. aureus DSM 20231	-0.193
S. aureus Newman [3]	0.0431
S. pneumoniae D39V [1]	-0.0971

fitness
Conditions	first compound 0.39 µg/mL	first compound 0.78 µg/mL	first compound 1 µg/mL	first compound 1.56 µg/mL	first compound 2 µg/mL	first compound 4 µg/mL
B. subtilis 168 [5], partner 2 µg/mL	0.908	0.878	–	0.796	–	–
B. subtilis 168 [5], partner 4 µg/mL	0.27	0.143	–	0.106	–	–
B. subtilis 168 [5], partner 8 µg/mL	0.0282	0.0233	–	0.0357	–	–
S. aureus Newman [6], partner 1 µg/mL	≥ 1	0.968	–	0.991	–	–
S. aureus Newman [6], partner 2 µg/mL	≥ 1	0.964	–	0.939	–	–
S. pneumoniae D39V [4], partner 2 µg/mL	–	–	0.933	–	0.914	0.739
S. pneumoniae D39V [4], partner 4 µg/mL	–	–	0.956	–	0.906	0.746
S. pneumoniae D39V [4], partner 8 µg/mL	–	–	0.876	–	0.784	0.567

S. pneumoniae D39V [4], partner 16 µg/mL, one replicate
Conditions	fitness
first compound 1 µg/mL	0.748
first compound 2 µg/mL	0.643
first compound 4 µg/mL	0.254

— the supplement of paper PMC10627819
